PubChem BioAssay (NCI)
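Protocol summary: plate cells (96-well), add compound at 5 concentrations, incubate 48 h, interpolate endpoints linearly. Here, GI50 denotes the concentration required for 50% inhibition of growth. TGI is the concentration that stops growth completely.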

Key:
Experiment in all cases: growth of human tumour cells (NCI), 48 h
IGROV1 ovarian = tested on: IGROV1 ovarian
HOP-62 NSCLC = tested on: HOP-62 NSCLC
OVCAR-5 ovarian = tested on: OVCAR-5 ovarian
M14 melanoma = tested on: M14 melanoma
786-0 renal = tested on: 786-0 renal
COLO 205 colon = tested on: COLO 205 colon
UO-31 renal = tested on: UO-31 renal
A549 NSCLC = tested on: A549 NSCLC
HL-60(TB) leukemia = tested on: HL-60(TB) leukemia
RXF 393 renal = tested on: RXF 393 renal

Structure (SMILES)	TGI (IGROV1 ovarian) [µM]	TGI (HOP-62 NSCLC) [µM]	TGI (OVCAR-5 ovarian) [µM]	TGI (M14 melanoma) [µM]	TGI (786-0 renal) [µM]	TGI (COLO 205 colon) [µM]	TGI (UO-31 renal) [µM]	TGI (A549 NSCLC) [µM]	TGI (HL-60(TB) leukemia) [µM]	TGI (RXF 393 renal) [µM]	GI50 (IGROV1 ovarian) [µM]	GI50 (HOP-62 NSCLC) [µM]	GI50 (OVCAR-5 ovarian) [µM]	GI50 (M14 melanoma) [µM]	GI50 (786-0 renal) [µM]	GI50 (COLO 205 colon) [µM]	GI50 (UO-31 renal) [µM]	GI50 (A549 NSCLC) [µM]	GI50 (HL-60(TB) leukemia) [µM]	GI50 (RXF 393 renal) [µM]
Cc1c2ccccc2cc2ccc3oc([N+](=O)[O-])cc3c12	> 100	> 100	> 100	> 100	> 100	> 100	> 100	> 100	> 100	> 100										
CC(=O)/C(=C/c1ccccc1F)C(=O)c1ccccc1	> 100	> 100	> 100	> 100	> 100	> 100	> 100	> 100	> 100	46										
CC(C)CCC1(CCN)C(=O)NC(=O)NC1=O	> 100	> 100	> 100	> 100	> 100	> 100	> 100	> 100	66.7	> 100										
O=C(O)[C@@H](Cc1ccc2ccccc2c1)NC(=O)n1c2ccccc2c2ccccc21	80.7	15.3	> 100	19.5	12.2	5.29	45.5	> 100	18.3	7.15	4.06	3.21	5.05	3.25	0.708	2.55	5.18	4.36	3.3	1.57
O=c1c2cc(Br)ccc2nc(CCl)n1-c1ccc(O)c([N+](=O)[O-])c1	51.6	36.1	> 100	50.2	31.8	37.8	29.9	52.3	49.5	25.7										
C=C1C[C@@H]2CC[C@@]34C[C@H]5O[C@H]6[C@@H](O3)[C@H]3O[C@H](CC[C@@H]3O[C@H]6[C@@H]5O4)CC(=O)C[C@@H]3[C@@H](OC)[C@@H](C[C@H](O)CN)O[C@H]3C[C@H]3O[C@@H](CC[C@@H]1O2)C[C@@H](C)C3=C	> 100	> 100	> 100	> 81.9	> 100	0.0652	> 100	> 100	< 0.0145	> 100	< 0.01	< 0.0115	< 0.01	< 0.0106	0.0761	< 0.01	1.34	< 0.01	< 0.01	< 0.01
CCCCN(CC)CC(C(C)=O)c1c(O)c2ccccc2oc1=O (stereo not given)	> 100	> 100	> 100	> 100	> 100	> 100	> 100	> 100	> 100	> 100										
CCCCN(CCCC)C(=O)/C(CC(=O)c1cccc2ccccc12)=N\NC(=O)c1cc2ccccc2cc1O	71.3	39.9	80.5	69.8	77.3	56.3	37.3	64.8	16.5	63										
CCNC(=O)c1noc(-c2cc(C(C)C)c(O)cc2O)c1-c1ccc(CN2CCOCC2)cc1	> 100	29.4	29.3	18.6	31.5	5.64	> 100	22.7	1.17	17.8	< 0.0224	0.0532	0.0631	0.0384	1.98	0.0787	0.0457	0.0221	0.024	0.0257
COC(=O)C1(C)Cc2cc(OC(C)=O)c(OC(C)=O)cc2N1 (stereo not given)	13.9	> 100	47	54.4	62.2	> 40.9	21.9	29.4	> 24.2	8.48	5.93	> 100	20	15.6	24.1	6.49	3.59	11.6	2.42	2.34
CN(C)CCNC(=O)Cn1ccc(=O)c2c([N+](=O)[O-])cccc21	> 100	> 100	> 100	> 100	> 100	> 100	> 100	> 100	> 100	> 100										
c1ccc(N2N=C(c3ccco3)CC2c2ccco2)cc1 (stereo not given)	> 100	> 100	> 100	> 100	> 100	> 100	> 100	> 100	73.4	> 100										
COc1cc(NCCCCCCCNC(C)C)c2nccc(C)c2c1	34.5	27.6	29.7	20.7	28.6	6.54	23	38.3	23.9	33.7	13.3	13.8	15.4	7.38	14.8	2.34	7.41	18.8	6.94	15.4
O=C(O)c1ccccc1/C=N/N=C1c2ccccc2-c2ccccc21	> 100	> 100	> 100	> 100	> 100	> 100	> 100	> 100	80.8	75.8										
c1c[nH]c(CN2CCOCC2)n1	> 100	> 100	> 100	> 100	> 100	> 100	> 100	> 100	> 100	> 100										
Nc1ccc(/C=C/C(=O)NCc2cc3cc(-c4ccc(C(=O)N5CCC(F)(F)CC5)cc4)cc(-c4ccc(F)cc4)c3o2)cn1	> 100	> 100	> 100	> 55.8	> 100	> 62.9	> 100	> 100	> 100	> 100	> 44.7	> 59.3	8.43	0.459	40.3	0.327	> 47.6	> 100	5.61	37.8
